Structures can show the parent of a compound that is named as a salt.

This experiment deals with histidine-tagged recombinant human TrkA, cytoplasmic domain (Homo sapiens (Human), UniProt P04629). Nature of the experiment: TrkA ELISA Assay. It is filed as biochemical. The note with it: 2.5 nM TrkA, 500 μM ATP, 25 minutes; read-out: TrkA Elisa Enzyme IC50. How it is done: An enzyme-linked immunosorbant assay (ELISA) was used to assess TrkA kinase activity in the presence of inhibitors. Immulon 4HBX 384-well microtiter plates (Thermo part #8755) were coated with a 0.025 mg/mL solution of poly (Glu, Ala, Tyr; 6:3:1; Sigma P3899). Various concentrations of test compound, 2.5 nM TrkA (Invitrogen Corp., histidine-tagged recombinant human TrkA, cytoplasmic domain), and 500 μM ATP were incubated for 25 minutes at ambient temperature in the coated plates while shaking. The assay buffer consisted of 25 mM MOPS pH 7.5, 0.005% (v/v) Triton X-100 and 5 mM MgCl2. The reaction mixture was removed from the plate by washing with PBS containing 0.1% (v/v) Tween 20. The phosphorylated reaction product was detected using 0.2 μg/mL of a phosphotyrosine specific monoclonal antibody (clone PY20) conjugated to horseradish peroxidase in conjunction with the TMB Peroxidase Substrate System (KPL). After the addition of 1M phosphoric acid, the chromogenic substrate color intensity was quantitated via absorbance at 450 nm. IC50 values were calculated using either a 4 or 5-parameter logistic curve fit.
Chain of histidine-tagged recombinant human TrkA, cytoplasmic domain (P04629 440-796): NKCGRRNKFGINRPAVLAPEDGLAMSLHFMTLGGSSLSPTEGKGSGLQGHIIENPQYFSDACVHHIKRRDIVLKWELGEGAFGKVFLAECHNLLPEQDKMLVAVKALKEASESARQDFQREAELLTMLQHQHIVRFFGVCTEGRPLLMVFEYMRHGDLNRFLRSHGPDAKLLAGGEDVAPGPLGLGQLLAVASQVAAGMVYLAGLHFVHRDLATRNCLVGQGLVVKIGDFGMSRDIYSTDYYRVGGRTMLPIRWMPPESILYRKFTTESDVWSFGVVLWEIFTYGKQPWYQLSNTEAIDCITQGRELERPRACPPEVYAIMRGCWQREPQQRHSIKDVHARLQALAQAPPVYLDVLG
Background: An ELISA detects its analyte on a solid surface through an enzyme-linked reagent.

As a reminder, the IC50 is the point on the concentration scale where inhibition reaches its midpoint. For `O=C(Nc1cnn2ccc(N3CCC[C@@H]3c3cc(F)ccc3C(F)F)nc12)N1CC[C@H](O)C1` [Example 37, (S)—N-(5-((R)-2-(2-(difluoromethyl)-5-fluorophenyl)pyrrolidin-1-yl)pyrazolo[1,5-a]pyrimidin-3-yl)-3-hydroxypyrrolidine-1-carboxamide], the 50% inhibitory concentration (IC50) amounted to 8.7 nM.
Regarding `O=C(Nc1cnn2ccc(N3CCC[C@@H]3c3cc(F)ccc3C(F)F)nc12)N1CCC(O)CC1` [Example 38, (R)—N-(5-(2-(2-(difluoromethyl)-5-fluorophenyl)pyrrolidin-1-yl)pyrazolo[1,5-a]pyrimidin-3-yl)-4-hydroxypiperidine-1-carboxamide], the IC50 was determined as 85.5 nM.
`O=C(Nc1cnn2ccc(N3CCC[C@@H]3c3cc(F)ccc3C(F)F)nc12)N1CCC[C@@H](O)C1` [Example 39, (R)—N-(5-((R)-2-(2-(difluoromethyl)-5-fluorophenyl)pyrrolidin-1-yl)pyrazolo[1,5-a]pyrimidin-3-yl)-3-hydroxypiperidine-1-carboxamide]: the IC50 worked out at 25.7 nM.
`O=C(Nc1cnn2ccc(N3CCC[C@@H]3c3cc(F)ccc3C(F)F)nc12)N1CCC[C@H](O)C1` [Example 40, (S)—N-(5-((R)-2-(2-(difluoromethyl)-5-fluorophenyl)pyrrolidin-1-yl)pyrazolo[1,5-a]pyrimidin-3-yl)-3-hydroxypiperidine-1-carboxamide]: the 50% inhibitory concentration (IC50) is 30.8 nM.
Under `O=C(Nc1cnn2ccc(N3CCC[C@@H]3c3cc(F)ccc3Cl)nc12)N1CC[C@@H](O)C1` [Example 41, (R)—N-(5-((R)-2-(2-chloro-5-fluorophenyl)pyrrolidin-1-yl)pyrazolo[1,5-a]pyrimidin-3-yl)-3-hydroxypyrrolidine-1-carboxamide] stands 4.1 nM.
As to `O=C(Nc1cnn2ccc(N3CCC[C@@H]3c3cc(F)ccc3Cl)nc12)N1CCC(O)CC1` [Example 42, (R)—N-(5-(2-(2-chloro-5-fluorophenyl)pyrrolidin-1-yl)pyrazolo[1,5-a]pyrimidin-3-yl)-4-hydroxypiperidine-1-carboxamide], the half-inhibitory concentration (IC50) stood at 28.3 nM.
For `O=C(Nc1cnn2ccc(N3CCC[C@@H]3c3cc(F)ccc3Cl)nc12)N1CCC[C@@H](O)C1` [Example 43, (R)—N-(5-((R)-2-(2-chloro-5-fluorophenyl)pyrrolidin-1-yl)pyrazolo[1,5-a]pyrimidin-3-yl)-3-hydroxypiperidine-1-carboxamide], the concentration for half-maximal inhibition (IC50) stood at 11.7 nM.
As for `O=C(Nc1cnn2ccc(N3CCC[C@@H]3c3cc(F)ccc3Cl)nc12)N1CCC[C@H](O)C1` [Example 44, (S)—N-(5-((R)-2-(2-chloro-5-fluorophenyl)pyrrolidin-1-yl)pyrazolo[1,5-a]pyrimidin-3-yl)-3-hydroxypiperidine-1-carboxamide], the half-inhibitory concentration (IC50) was found to be 13.4 nM.
Consider `CC(C)(C)C(=O)Nc1cnn2ccc(N3CCC[C@@H]3c3cc(F)ccc3F)nc12` [Example 45, (R)—N-(5-(2-(2,5-difluorophenyl)pyrrolidin-1-yl)pyrazolo[1,5-a]pyrimidin-3-yl)pivalamide], for which the half-inhibitory concentration (IC50) stood at 6.3 nM.
For `CC(C)(C)OC(=O)N1CC(C(=O)Nc2cnn3ccc(N4CCC[C@@H]4c4cc(F)ccc4Cl)nc23)C1` [Example 46, (R)-tert-butyl 3-(5-(2-(2-chloro-5-fluorophenyl)pyrrolidin-1-yl)pyrazolo[1,5-a]pyrimidin-3-ylcarbamoyl)azetidine-1-carboxylate], the 50% inhibitory concentration (IC50) came out at 37.3 nM.
For `O=C(Nc1cnn2ccc(N3CCC[C@@H]3c3cc(F)ccc3Cl)nc12)C1CNC1` [Example 47, (R)—N-(5-(2-(2-chloro-5-fluorophenyl)pyrrolidin-1-yl)pyrazolo[1,5-a]pyrimidin-3-yl)azetidine-3-carboxamide trifluoroacetate], the IC50 is 190 nM.
In the case of `CC(C)(C)OC(=O)N1CCC(C)(C(=O)Nc2cnn3ccc(N4CCC[C@@H]4c4cc(F)ccc4Cl)nc23)CC1` [Example 48, (R)-tert-butyl 4-(5-(2-(2-chloro-5-fluorophenyl)pyrrolidin-1-yl)pyrazolo[1,5-a]pyrimidin-3-ylcarbamoyl)-4-methylpiperidine-1-carboxylate] it was 15.3 nM; in that of `CC1(C(=O)Nc2cnn3ccc(N4CCC[C@@H]4c4cc(F)ccc4Cl)nc23)CCNCC1` [Example 49, (R)—N-(5-(2-(2-chloro-5-fluorophenyl)pyrrolidin-1-yl)pyrazolo[1,5-a]pyrimidin-3-yl)-4-methylpiperidine-4-carboxamide hydrochloride], 29.2 nM; in that of `CC(C)(O)C(=O)Nc1cnn2ccc(N3CCC[C@@H]3c3cc(F)ccc3F)nc12` [Example 50, (R)—N-(5-(2-(2,5-difluorophenyl)pyrrolidin-1-yl)pyrazolo[1,5-a]pyrimidin-3-yl)-2-hydroxy-2-methylpropanamide], 12.4 nM.
Regarding `O=C(Nc1cnn2ccc(N3CCC[C@@H]3c3cc(F)ccc3F)nc12)C1(C(F)(F)F)CC1` [Example 51, (R)—N-(5-(2-(2,5-difluorophenyl)pyrrolidin-1-yl)pyrazolo[1,5-a]pyrimidin-3-yl)-1-(trifluoromethyl)cyclopropanecarboxamide], the IC50 came to 5.2 nM.
In the case of `N#CC1(C(=O)Nc2cnn3ccc(N4CCC[C@@H]4c4cc(F)ccc4F)nc23)CC1` [Example 52, (R)-1-cyano-N-(5-(2-(2,5-difluorophenyl)pyrrolidin-1-yl)pyrazolo[1,5-a]pyrimidin-3-yl)cyclopropanecarboxamide] it was 4.2 nM; in that of `C[C@]1(C(=O)Nc2cnn3ccc(N4CCC[C@@H]4c4cc(F)ccc4F)nc23)CCCN1` [Example 53, (R)—N-(5-((R)-2-(2,5-difluorophenyl)pyrrolidin-1-yl)pyrazolo[1,5-a]pyrimidin-3-yl)-2-methylpyrrolidine-2-carboxamide], 31 nM; in that of `CC(C)(F)C(=O)Nc1cnn2ccc(N3CCC[C@@H]3c3cc(F)ccc3F)nc12` [Example 54, (R)—N-(5-(2-(2,5-difluorophenyl)pyrrolidin-1-yl)pyrazolo[1,5-a]pyrimidin-3-yl)-2-fluoro-2-methylpropanamide], 14.2 nM.
Turning to `CC(C)Nc1nc(C(=O)Nc2cnn3ccc(N4CCC[C@@H]4c4cc(F)ccc4F)nc23)cs1` [Example 55, (R)—N-(5-(2-(2,5-difluorophenyl)pyrrolidin-1-yl)pyrazolo[1,5-a]pyrimidin-3-yl)-2-(isopropylamino)thiazole-4-carboxamide], the IC50 amounted to 3.1 nM.
For the molecule `CC(C)(C(=O)Nc1cnn2ccc(N3CCC[C@@H]3c3cc(F)ccc3F)nc12)n1cncn1` [Example 56, (R)—N-(5-(2-(2,5-difluorophenyl)pyrrolidin-1-yl)pyrazolo[1,5-a]pyrimidin-3-yl)-2-methyl-2-(1H-1,2,4-triazol-1-yl)propanamide], the half-inhibitory concentration (IC50) is 14.4 nM.
As for `Cc1cnc(C(=O)Nc2cnn3ccc(N4CCC[C@@H]4c4cc(F)ccc4F)nc23)cn1` [Example 58, (R)—N-(5-(2-(2,5-difluorophenyl)pyrrolidin-1-yl)pyrazolo[1,5-a]pyrimidin-3-yl)-5-methylpyrazine-2-carboxamide], the 50% inhibitory concentration (IC50) amounted to 3.1 nM.
In the case of `O=C(Nc1cnn2ccc(N3CCC[C@@H]3c3cc(F)ccc3F)nc12)c1ccccn1` [Example 59, (R)—N-(5-(2-(2,5-difluorophenyl)pyrrolidin-1-yl)pyrazolo[1,5-a]pyrimidin-3-yl)picolinamide] it was 1.7 nM; in that of `Cc1cccc(C(=O)Nc2cnn3ccc(N4CCC[C@@H]4c4cc(F)ccc4F)nc23)n1` [Example 60, (R)—N-(5-(2-(2,5-difluorophenyl)pyrrolidin-1-yl)pyrazolo[1,5-a]pyrimidin-3-yl)-6-methylpicolinamide], 4.2 nM; in that of `O=C(Nc1cnn2ccc(N3CCC[C@@H]3c3cc(F)ccc3F)nc12)c1ccc(Cl)cn1` [Example 61, (R)-5-chloro-N-(5-(2-(2,5-difluorophenyl)pyrrolidin-1-yl)pyrazolo[1,5-a]pyrimidin-3-yl)picolinamide], 4 nM.
Consider `O=C(Nc1cnn2ccc(N3CCC[C@@H]3c3cc(F)ccc3F)nc12)c1cc(Cl)ccn1` [Example 62, (R)-4-chloro-N-(5-(2-(2,5-difluorophenyl)pyrrolidin-1-yl)pyrazolo[1,5-a]pyrimidin-3-yl)picolinamide], for which the half-maximal inhibitory concentration (IC50) turned out to be 4 nM.
With `Cc1cccnc1C(=O)Nc1cnn2ccc(N3CCC[C@@H]3c3cc(F)ccc3F)nc12` [Example 63, (R)—N-(5-(2-(2,5-difluorophenyl)pyrrolidin-1-yl)pyrazolo[1,5-a]pyrimidin-3-yl)-3-methylpicolinamide], the IC50 worked out at 1.7 nM.
For the molecule `CC(C)(CO)C(=O)Nc1cnn2ccc(N3CCC[C@@H]3c3cc(F)ccc3F)nc12` [Example 64, (R)—N-(5-(2-(2,5-difluorophenyl)pyrrolidin-1-yl)pyrazolo[1,5-a]pyrimidin-3-yl)-3-hydroxy-2,2-dimethylpropanamide], the half-inhibitory concentration (IC50) came out at 7.5 nM.
Under `O=C(Nc1cnn2ccc(N3CCC[C@@H]3c3cc(F)ccc3F)nc12)C1(O)CC1` [Example 65, (R)—N-(5-(2-(2,5-difluorophenyl)pyrrolidin-1-yl)pyrazolo[1,5-a]pyrimidin-3-yl)-1-hydroxycyclopropanecarboxamide] stands 16.5 nM; under `CNC(C)(C)C(=O)Nc1cnn2ccc(N3CCC[C@@H]3c3cc(F)ccc3F)nc12` [Example 66, (R)—N-(5-(2-(2,5-difluorophenyl)pyrrolidin-1-yl)pyrazolo[1,5-a]pyrimidin-3-yl)-2-methyl-2-(methylamino)propanamide], 52.5 nM.

For the origin of these results see patent US8865698B2, “Method of treatment using substituted pyrazolo[1,5-a]pyrimidine compounds” (Array BioPharma Inc., priority 2008, dated 2014).
